Assay results from the NIST ThermoML archive (doi:10.1021/je060271a).
Values joined by “and” are separate entries in the source; they are usually repeats but may differ in a detail not shown here. Equal entries are not always repeated.

Settings: Liquid, Vibrating tube method

CCCCCCCC(=O)OCC(COC(=O)CCCCCCC)(COC(=O)CCCCCCC)COC(=O)CCCCCCC [pentaerythritol tetraoctanoate]
Settings	mass density
323.16 K, 4757.8 kPa	943.8 kg/m3
323.16 K, 4775.8 kPa	944 kg/m3
323.16 K, 4790.7 kPa	943.8 kg/m3
323.16 K, 4806.4 kPa	943.9 kg/m3
323.16 K, 4825.1 kPa	943.9 kg/m3
323.16 K, 4840.2 kPa	943.9 kg/m3
323.16 K, 4856.4 kPa	943.9 kg/m3
323.16 K, 4875.1 kPa	943.9 kg/m3
323.16 K, 5122 kPa	944.1 kg/m3
323.16 K, 5143.5 kPa	944.1 kg/m3
323.16 K, 5161 kPa	944.2 kg/m3
323.16 K, 5179 kPa	944.2 kg/m3
323.16 K, 5197.1 kPa	944.1 kg/m3
323.16 K, 5335.6 kPa	944.3 kg/m3
323.16 K, 5398.2 kPa	944.3 kg/m3
323.16 K, 5417.6 kPa	944.3 kg/m3
323.16 K, 5438 kPa	944.3 kg/m3
323.16 K, 5461.9 kPa	944.3 kg/m3
323.16 K, 5481.8 kPa	944.5 kg/m3
323.16 K, 5502.5 kPa	944.5 kg/m3
323.16 K, 5527.1 kPa	944.4 kg/m3
323.16 K, 5547.9 kPa	944.4 kg/m3
323.16 K, 5568.6 kPa	944.4 kg/m3
323.16 K, 5590.2 kPa	944.4 kg/m3
323.16 K, 5611.9 kPa	944.4 kg/m3
323.16 K, 5637.6 kPa	944.4 kg/m3
323.16 K, 5659.6 kPa	944.4 kg/m3
323.16 K, 5703.9 kPa	944.5 kg/m3
323.16 K, 5774.4 kPa	944.6 kg/m3
323.16 K, 5797.1 kPa	944.6 kg/m3
323.16 K, 5824.6 kPa	944.7 kg/m3
323.16 K, 5870.9 kPa	944.6 kg/m3
323.16 K, 6078.5 kPa	944.7 kg/m3
323.16 K, 6238.8 kPa	944.8 kg/m3
323.16 K, 6265.6 kPa	944.9 kg/m3
323.16 K, 6297.7 kPa	944.9 kg/m3
323.16 K, 6324.9 kPa	944.9 kg/m3
323.16 K, 6352.7 kPa	944.9 kg/m3
323.16 K, 6380.2 kPa	944.9 kg/m3
323.16 K, 12370 kPa	948.8 kg/m3
323.16 K, 12396 kPa	948.8 kg/m3
323.16 K, 12424 kPa	948.8 kg/m3
323.16 K, 20026 kPa	953.6 kg/m3
323.16 K, 21868 kPa	954.6 kg/m3
323.16 K, 21910 kPa	954.7 kg/m3
323.16 K, 22807 kPa	955.3 kg/m3
323.16 K, 27149 kPa	957.8 kg/m3
323.16 K, 27197 kPa	957.9 kg/m3
323.16 K, 27237 kPa	957.9 kg/m3
323.16 K, 27277 kPa	957.9 kg/m3
323.16 K, 27317 kPa	957.9 kg/m3
323.16 K, 27366 kPa	957.9 kg/m3
323.16 K, 27451 kPa	958 kg/m3
323.16 K, 27504 kPa	958 kg/m3
323.16 K, 27997 kPa	958.3 kg/m3
323.16 K, 28020 kPa	958.4 kg/m3
323.16 K, 28046 kPa	958.3 kg/m3
323.16 K, 28069 kPa	958.3 kg/m3
343.14 K, 4667.8 kPa	929.4 kg/m3
343.14 K, 4690.1 kPa	929.4 kg/m3
343.14 K, 8016.3 kPa	931.8 kg/m3
343.14 K, 8048.6 kPa	931.8 kg/m3
343.14 K, 8086.2 kPa	932 kg/m3
343.14 K, 8118.6 kPa	931.9 kg/m3
343.14 K, 8397.9 kPa	932.1 kg/m3
343.14 K, 8438.9 kPa	932.1 kg/m3
343.14 K, 8473.8 kPa	932.1 kg/m3
343.14 K, 8822.1 kPa	932.4 kg/m3
343.14 K, 8860.4 kPa	932.5 kg/m3
343.14 K, 8906.8 kPa	932.5 kg/m3
343.14 K, 8945 kPa	932.5 kg/m3
343.14 K, 9418.7 kPa	932.8 kg/m3
343.14 K, 10399 kPa	933.5 kg/m3
343.14 K, 11681 kPa	934.4 kg/m3
343.14 K, 13765 kPa	935.9 kg/m3
343.14 K, 16874 kPa	938 kg/m3
343.14 K, 17179 kPa	938.2 kg/m3
343.14 K, 17211 kPa	938.2 kg/m3
343.14 K, 17250 kPa	938.2 kg/m3
343.14 K, 17283 kPa	938.3 kg/m3
343.14 K, 17315 kPa	938.2 kg/m3
343.14 K, 20086 kPa	940.3 kg/m3
343.14 K, 20133 kPa	940.1 kg/m3
343.14 K, 20456 kPa	940.4 kg/m3
343.14 K, 20478 kPa	940.5 kg/m3
343.14 K, 20501 kPa	940.3 kg/m3
343.14 K, 22979 kPa	942 kg/m3
343.14 K, 24214 kPa	942.8 kg/m3
343.14 K, 26657 kPa	944.4 kg/m3
343.14 K, 30407 kPa	946.7 kg/m3
343.14 K, 30444 kPa	946.7 kg/m3
343.14 K, 30488 kPa	946.6 kg/m3
343.14 K, 30968 kPa	947 kg/m3
343.14 K, 32801 kPa	948 kg/m3
343.15 K, 105.1 kPa	926 kg/m3
343.15 K, 105.3 kPa	926.1 kg/m3 and 926 kg/m3 and 926.2 kg/m3
343.15 K, 105.5 kPa	926 kg/m3
343.15 K, 105.6 kPa	925.9 kg/m3
343.15 K, 106 kPa	926.1 kg/m3
343.15 K, 108.9 kPa	926 kg/m3
343.15 K, 123.5 kPa	926.1 kg/m3
343.15 K, 154.3 kPa	926 kg/m3
343.15 K, 224 kPa	926.1 kg/m3
343.15 K, 227.5 kPa	926.1 kg/m3
343.15 K, 231.8 kPa	926 kg/m3
343.15 K, 235.3 kPa	926.1 kg/m3
343.15 K, 239.5 kPa	926.1 kg/m3
343.15 K, 243.8 kPa	926.3 kg/m3
343.15 K, 248 kPa	926.2 kg/m3
343.15 K, 253 kPa	926.2 kg/m3
343.15 K, 257.4 kPa	926.1 kg/m3
343.15 K, 262.8 kPa	926.2 kg/m3
343.15 K, 268.2 kPa	926.1 kg/m3
343.15 K, 273.2 kPa	926.1 kg/m3
343.15 K, 279.6 kPa	926.1 kg/m3
343.15 K, 285.2 kPa	926.2 kg/m3
343.15 K, 292.1 kPa	926.2 kg/m3
343.15 K, 299.6 kPa	926.2 kg/m3
343.15 K, 305.7 kPa	926.2 kg/m3
343.15 K, 313.9 kPa	926.1 kg/m3
343.15 K, 321 kPa	926.1 kg/m3
343.15 K, 329.7 kPa	926.3 kg/m3
343.15 K, 338 kPa	926.3 kg/m3
343.15 K, 347.9 kPa	926.2 kg/m3
343.15 K, 358.4 kPa	926.1 kg/m3
343.15 K, 367.9 kPa	926.2 kg/m3
343.15 K, 379.9 kPa	926.1 kg/m3
343.15 K, 392.9 kPa	926.3 kg/m3
343.15 K, 404.2 kPa	926 kg/m3
343.15 K, 419.5 kPa	926.3 kg/m3
343.15 K, 433.8 kPa	926.1 kg/m3
343.15 K, 449.4 kPa	926.1 kg/m3
343.15 K, 460.9 kPa	926.1 kg/m3
343.15 K, 471.1 kPa	926.2 kg/m3
343.15 K, 480.2 kPa	926.3 kg/m3
343.15 K, 491.8 kPa	926.5 kg/m3
343.15 K, 504 kPa	926.2 kg/m3
343.15 K, 514.2 kPa	926.3 kg/m3
343.15 K, 527.6 kPa	926.3 kg/m3
343.15 K, 538.9 kPa	926.2 kg/m3
343.15 K, 553.3 kPa	926.3 kg/m3
343.15 K, 568.4 kPa	926.4 kg/m3
343.15 K, 582.5 kPa	926.4 kg/m3
343.15 K, 596.2 kPa	926.4 kg/m3
343.15 K, 613.8 kPa	926.4 kg/m3
343.15 K, 632.2 kPa	926.4 kg/m3
343.15 K, 648.4 kPa	926.4 kg/m3
